Laboratory results published in US6727066B2, “Genes expressed in treated human C3A liver cell cultures” (Incyte Corporation, priority 2000, dated 2004).

Test system: human C3A liver cell cultures
Experiment: Microarray differential expression of cDNAs in treated human C3A liver cell cultures
Format: cell-based
Settings: change vs untreated C3A cells
Description: Incyte clones represent template sequences derived from the LIFESEQ GOLD assembled human sequence database (Incyte Genomics). In cases where more than one clone was available for a particular template, the 5′-most clone in the template was used on the microarray. The GENEALBUM GEM series 1-6 microarrays (Incyte Genomics) contain 52,616 array elements which represent 17,472 annotated clusters and 35,144 unannotated clusters. The HUMAN GENOME GEM series 1-3 microarrays (Incyte Genomics) contain 28,626 array elements which represent 10,068 annotated clusters and 18,558 unannotated clusters. For the UNIGEM series microarrays (Incyte Genomics), Incyte clones were mapped to non-redundant Unigene clusters (Unigene database (build 46), NCBI; Shuler (1997) J Mol Med 75:694-698), and the 5′ clone with the strongest BLAST alignment (at least 90% identity and 100 bp overlap) was chosen, verified, and used in the construction of the microarray. The UNIGEM V microarray (Incyte Genomics) contains 7075 array elements which represent 4610 annotated genes and 2,184 unannotated clusters.
To construct microarrays, cDNAs were amplified from bacterial cells using primers complementary to vector sequences flanking the cDNA insert. […] Amplified cDNAs were then purified using […]-400 columns (APB). Purified cDNAs were immobilized on polymer-coated glass slides. Glass microscope slides (Corning, Corning N.Y.) were cleaned by ultrasound in 0.1% SDS and acetone, with extensive distilled water washes between and after treatments. Glass slides were etched in 4% hydrofluoric acid (VWR Scientific Products, West Chester Pa.), washed thoroughly in distilled water, and coated with 0.05% aminopropyl silane (Sigma Aldrich) in 95% ethanol. Coated slides were cured in a 110° C. oven. cDNAs were applied to the coated glass substrate using a procedure described in U.S. Pat. No. 5,807,522. One microliter of the cDNA at an average concentration of 100 ng/ul was loaded into the open capillary printing element by a high-speed robotic apparatus which then deposited about 5 nl of cDNA per slide.
Microarrays were UV-crosslinked using a […] UV-crosslinker (Stratagene), and then washed at room temperature once in 0.2% SDS and three times in distilled water. Non-specific binding sites were blocked by incubation of microarrays in 0.2% casein in phosphate buffered saline (Tropix, Bedford Mass.) for 30 minutes at 60° C. followed by washes in 0.2% SDS and distilled water as before.
Early confluent C3A cells (ATTC, Manassas Va.) were treated with captopril (0.5, 2, 48, and 60 μg/ml) for 1, 3, and 6 hours. Early confluent C3A cells were treated with enalapril (0.5, 2, 48, and 60 μg/ml) for 1, 3, and 6 hours. Early confluent C3A cells were treated with LY294002 (0.5, 2, 15, and 25 μg/ml) for 1, 3, and 6 hours. Early confluent C3A cells were starved of insulin for 3 days prior to treatment, then treated with LY294002 (10 μM) for 2, 24, 36, and 72 hours in the presence of insulin. Early confluent C3A cells were treated with DES (1, 10, and 100 μM) for 1, 3, and 6 hours. Early confluent C3A cells were treated with dexamethasone (1 and 20 μM) for 0, 2, 6, and 24 hours. Early confluent C3A cells were treated with MCA (0.5 and 10 μM) for 2, 6, and 24 hours. In all cases mRNA from untreated early confluent cells were prepared in parallel as described below.
Cells were harvested and lysed in 1 ml of TRIZOL reagent (5×10^6 cells/ml; Life Technologies). The lysates were vortexed thoroughly and incubated at room temperature for 2-3 minutes and extracted with 0.5 ml chloroform. The extract was mixed, incubated at room temperature for 5 minutes, and centrifuged at 15,000 rpm for 15 minutes at 4° C. The aqueous layer was collected and an equal volume of isopropanol was added.

## C[C@@H]1C[C@H]2[C@@H]3CCC4=CC(=O)C=C[C@]4(C)[C@@]3(F)[C@@H](O)C[C@]2(C)[C@@]1(O)C(=O)CO [Dexamethasone]
  expression level of cDNA clone 26474: −4.2
  expression level of cDNA clone 63038: −2.36
  expression level of cDNA clone 118501: 2.79
  expression level of cDNA clone 167081: 2.14
  expression level of cDNA clone 172023: −5.8
  expression level of cDNA clone 237027: −2.85
  expression level of cDNA clone 630625: 2.52
  expression level of cDNA clone 990375: −2.5
  expression level of cDNA clone 1379063: −3.42
  expression level of cDNA clone 1381654: 2.57
  expression level of cDNA clone 1441245: −2.3
  expression level of cDNA clone 1448718: −3.1
  expression level of cDNA clone 1468660: −3.3
  expression level of cDNA clone 1559756: 2.47
  expression level of cDNA clone 1616783: 2.55
  expression level of cDNA clone 1619292: −4.4
  expression level of cDNA clone 1623214: −2.25
  expression level of cDNA clone 1630990: 2.86
  expression level of cDNA clone 1696224: 2.83
  expression level of cDNA clone 1786554: 2.66
  expression level of cDNA clone 1833362: −3.7
  expression level of cDNA clone 1834236: −2.3
  expression level of cDNA clone 1846209: 2.2
  expression level of cDNA clone 1890576: −2.5
  expression level of cDNA clone 1975268: −3.35
  expression level of cDNA clone 1998269: 2.44
  expression level of cDNA clone 2046717: 2.8
  expression level of cDNA clone 2048551: 2.91
  expression level of cDNA clone 2120743: 3.25
  expression level of cDNA clone 2123516: 2.66
  expression level of cDNA clone 2160794: −2.51
  expression level of cDNA clone 2195427: 2.3
  expression level of cDNA clone 2343348: 2.18
  expression level of cDNA clone 2470485: −2.8
  expression level of cDNA clone 2513883: 3.93
  expression level of cDNA clone 2660756: 2.21
  expression level of cDNA clone 2757583: 4.93
  expression level of cDNA clone 2822027: 3
  expression level of cDNA clone 2921991: −2.95
  expression level of cDNA clone 2925373: −2.63
  expression level of cDNA clone 2933775: 4.32
  expression level of cDNA clone 3028719: −2.6
  expression level of cDNA clone 3084204: −2.47
  expression level of cDNA clone 3109384: 2.6
  expression level of cDNA clone 3170010: −3.67
  expression level of cDNA clone 3284411: −2.4
  expression level of cDNA clone 3715059: −3.17
  expression level of cDNA clone 4091186: 2.45
  expression level of cDNA clone 4508879: 2.86
  expression level of cDNA clone 5399371: 2.63

## C[C@H](CS)C(=O)N1CCC[C@H]1C(=O)O [Captopril]
  expression level of cDNA clone 63038: −3.16
  expression level of cDNA clone 118501: 4.36
  expression level of cDNA clone 160822: 2.5
  expression level of cDNA clone 211389: −2.52
  expression level of cDNA clone 630625: 2.81
  expression level of cDNA clone 1315663: −2.84
  expression level of cDNA clone 1368834: 2.47
  expression level of cDNA clone 1379063: −4
  expression level of cDNA clone 1381654: 1.57
  expression level of cDNA clone 1448718: −3.93
  expression level of cDNA clone 1519431: 2.36
  expression level of cDNA clone 1559756: 1.56
  expression level of cDNA clone 1619292: −4.3
  expression level of cDNA clone 1696224: 3.28
  expression level of cDNA clone 1711151: 3.05
  expression level of cDNA clone 1846209: 1.81
  expression level of cDNA clone 1930235: 3.25
  expression level of cDNA clone 1998269: 2.99
  expression level of cDNA clone 2055569: −3.33
  expression level of cDNA clone 2055867: −2.61
  expression level of cDNA clone 2123516: 3.89
  expression level of cDNA clone 2360580: −2.71
  expression level of cDNA clone 2446289: −2.15
  expression level of cDNA clone 2757583: 4.03
  expression level of cDNA clone 2769888: −2.01
  expression level of cDNA clone 2820337: 2.29
  expression level of cDNA clone 2884613: 2.46
  expression level of cDNA clone 2912637: −2.38
  expression level of cDNA clone 2921991: −5.21
  expression level of cDNA clone 2933775: 5.14
  expression level of cDNA clone 3225977: 2.89
  expression level of cDNA clone 3240708: 2.02
  expression level of cDNA clone 3381870: 2.62
  expression level of cDNA clone 3679667: −2.09
  expression level of cDNA clone 3815422: −3.78
  expression level of cDNA clone 4107126: 2.88

## O=c1cc(N2CCOCC2)oc2c(-c3ccccc3)cccc12 [LY294002]
  expression level of cDNA clone 172023: −3.38
  expression level of cDNA clone 279898: 6.7
  expression level of cDNA clone 459372: 4.65
  expression level of cDNA clone 1315663: −3.27
  expression level of cDNA clone 1468660: −2.28
  expression level of cDNA clone 1975268: −3.45
  expression level of cDNA clone 1998269: −2.46
  expression level of cDNA clone 2769888: −3.37
  expression level of cDNA clone 3427373: 4.2
  expression level of cDNA clone 3715059: −4.3
  expression level of cDNA clone 4556538: 2.45

## CC/C(=C(/CC)c1ccc(O)cc1)c1ccc(O)cc1 [DES, Diethylstilbestrol]
  expression level of cDNA clone 60123: 2.6
  expression level of cDNA clone 172023: 2.85
  expression level of cDNA clone 437481: 2.24
  expression level of cDNA clone 443991: 2.62
  expression level of cDNA clone 510056: 2.73
  expression level of cDNA clone 891322: 3.81
  expression level of cDNA clone 970905: 2.25
  expression level of cDNA clone 1272483: 2.51
  expression level of cDNA clone 1326255: −2.7
  expression level of cDNA clone 1956982: −2.13
  expression level of cDNA clone 2055867: 2.97
  expression level of cDNA clone 2241825: −2.39
  expression level of cDNA clone 2311213: −2.34
  expression level of cDNA clone 2545486: −2.49
  expression level of cDNA clone 2550767: 2.1
  expression level of cDNA clone 2956444: 2.1
  expression level of cDNA clone 3222802: 2.4
  expression level of cDNA clone 4019706: 2.99
  expression level of cDNA clone 4287327: 2.66
  expression level of cDNA clone 4715924: −2.21
  expression level of cDNA clone 5293028: −2.3
  expression level of cDNA clone 5399371: −2.63
Table row r18
  expression level of cDNA clone 293477: 2.83
Table row r23
  expression level of cDNA clone 293477: 2
